PubChem BioAssay (NCI)
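Assay format: 96-well plates, 48-hour exposure. Here, GI50 denotes the concentration required for 50% inhibition of growth. Definition used: TGI = concentration required for complete inhibition of growth.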

Legend:
Experiment in all cases: growth of human tumour cells (NCI), 48 h
[1] = tested on: A549 NSCLC
[2] = tested on: CCRF-CEM leukemia
[3] = tested on: HCC-2998 colon
[4] = tested on: HCT-116 colon
[5] = tested on: HCT-15 colon
[6] = tested on: HT29 colon
[7] = tested on: LOX IMVI melanoma
[8] = tested on: OVCAR-4 ovarian
[9] = tested on: OVCAR-5 ovarian
[10] = tested on: OVCAR-8 ovarian
[11] = tested on: SF-268 CNS
[12] = tested on: SK-OV-3 ovarian
[13] = tested on: SNB-75 CNS
[14] = tested on: SR leukemia
[15] = tested on: TK-10 renal
[16] = tested on: UO-31 renal
[17] = tested on: NCI-H522 lung
[18] = tested on: SF-295 CNS

`CCN(CC)CCCNC(=O)c1ccccc1Nc1c(Cl)cccc1Cl` was tested, and the TGI [1] was 31.5 µM, the TGI [2] was 21.3 µM and the TGI [3] was 21.3 µM. It also gave a TGI [4] of 23.6 µM, a TGI [5] of 25.2 µM and a TGI [6] of 16.5 µM. The TGI [7] was 22.3 µM, the TGI [8] was 23 µM and the TGI [9] was 24.3 µM. For the same compound, the TGI [10] was 31.6 µM, the TGI [11] was 30.2 µM and the TGI [12] was 27.7 µM. For the same compound, the TGI [13] was 15.4 µM, the TGI [14] was 27.6 µM and the TGI [15] was 23.7 µM. The TGI [16] was 20.3 µM.
`O=C(N/N=C/c1cc(Cl)cc(Cl)c1[O-])c1ccccc1O.O=C(N/N=C/c1cc(Cl)cc(Cl)c1[O-])c1ccccc1O.[Cu+2]` was tested, and the GI50 [1] was 0.385 µM, the TGI [1] was 1.65 µM and the TGI [3] was 1.46 µM. It also gave a GI50 [4] of 0.255 µM, a TGI [4] of 0.597 µM and a TGI [5] of 1.61 µM. For the same compound, the TGI [6] was 2.06 µM, the TGI [7] was 1.46 µM and the TGI [17] was 0.568 µM. The TGI [8] was 0.637 µM, the TGI [9] was 1.92 µM and the TGI [10] was 1.08 µM. It also gave a TGI [11] of 1.61 µM, a TGI [18] of 1.26 µM and a TGI [12] of 1.38 µM. The TGI [13] was 2.13 µM, the TGI [14] was 0.511 µM and the TGI [15] was 1.65 µM. The TGI [16] was 1.41 µM.
`O=C(N/N=C/c1cc(Cl)cc(Cl)c1[O-])c1ccccc1O.O=C(N/N=C/c1cc(Cl)cc(Cl)c1[O-])c1ccccc1O.[Fe+2]` showed a GI50 [1] of 10.2 µM, a TGI [1] of 35.2 µM and a TGI [2] of over 100 µM. For the same compound, the TGI [3] was 26.2 µM, the GI50 [4] was 11.4 µM and the TGI [4] was 72.7 µM. For the same compound, the TGI [5] was 19.3 µM, the TGI [7] was 86.5 µM and the TGI [17] was 23.8 µM. The TGI [8] was 33.7 µM, the TGI [10] was 34.3 µM and the TGI [11] was 38.9 µM. The TGI [18] was 33.9 µM, the TGI [12] was 39.1 µM and the TGI [13] was 72.9 µM. It also gave a TGI [14] of 35.8 µM, a TGI [15] of over 100 µM and a TGI [16] of 48.7 µM.
